From ChEMBL document CHEMBL3301464, “MMV Malaria Box anti-babesial screening”

How the values were obtained:
[1] = (§1) MMV: Anti-babesial activity assay. Parasite pRBCs at 1% parasitemia were cultivated in 100 ul with 96-well plates at 2.5% and 5% hematocrits. The parasites were cultivated in triplicate for 4 days without replacement of the medium for each concentration of the compound.; type: functional, Babesia equi
[2] = as §1; type: functional, Babesia bovis
[3] = as §1; type: functional, Babesia bigemina
[4] = as §1; type: functional, Babesia caballi

SMILES	IC50 [1] [µM]	IC50 [2] [µM]	IC50 [3] [µM]	IC50 [4] [µM]
CSC1=NC(=Nc2c(C)cccc2C)C2(CCC(C(C)(C)C)CC2)N1c1ccc(Cl)cc1 (stereo not drawn)	11.5	18.4	17.1	15
Cc1cc(C)cc(Nc2cc(C)nc3nc(C(F)(F)F)nn23)c1	21.9	20.6	13.6	12.4
O=C(NCC(c1ccsc1)N1CCCCCC1)c1ccc(C(F)(F)F)cc1 (stereo not drawn)	18.1	18.2	13.6	10
COc1ccc(-c2cc3c(SCC(=O)Nc4cc(C(F)(F)F)ccc4Cl)nccn3n2)cc1	25	> 25	17.1	9.61
Cc1ccc(-c2cc3c(SCC(=O)Nc4cc(C(F)(F)F)ccc4Cl)nccn3n2)cc1	5.89	21.6	16.6	13.5
CCN(CC)CCNc1ncnc2c1[nH]c1ccc(Cl)cc12	3.42	17.6	16.2	2.64
CCOC(=O)c1cnc2ccc(CC)cc2c1O	14.9	> 25	17.5	13.5
CCCCCC(=O)N1c2ccccc2N=C2CC(c3ccc(OC)c(OC)c3)CC(O)=C2C1c1ccc(C(F)(F)F)cc1 (stereo not drawn)	21.9	> 25	16.2	14.2
Oc1ccccc1CN1CCC2(CCCN(Cc3ccccc3F)C2)C1 (stereo not drawn)	0.1	14.3	0.73	5.06
Cc1ccc(-c2cc(C(=O)Nc3ccc(S(=O)(=O)N4CCCCC4)cc3)[nH]n2)c(O)c1	8.25	> 25	2.45	10
COc1ccc(-c2nc(NC(=O)CS(=O)(=O)c3ccc(F)cc3)sc2C)cc1	13.4	17.9	17	14.6
FC(F)(F)c1ccc(Nc2nnnc3ccccc23)cc1	10	25	7.18	13.4
c1ccc(-c2ccc(-c3nc4ccccc4[nH]3)cc2)cc1	10	25	10	14.8
CCc1c(C)c(=N)c2ccccc2n1C	7.23	18.4	3.42	0.26
COc1cccc(NC(=O)Cn2c(C)c(C#N)c3ccccc32)c1	7.3	9.04	14.8	10.1
CCC(c1ccccc1)c1nn2c(-c3cccs3)nnc2s1 (stereo not drawn)	7.87	18.6	16.4	15.8
CC(C)(C)c1ccc(O)c(CNC2CCCCC2)c1	7	18.2	17	10
Cn1c(=O)c2cc(C(=O)NCCCN3CCCCCC3)sc2c2ccccc21	5.35	10	8.03	13.9
CC1CN(C(=O)c2sc3ccccc3c2Cl)CC(C)O1 (stereo not drawn)	23.1	> 25	18.2	19.2
CN(C)c1ccc(C=Cc2nc(=O)c3ccccc3o2)cc1	11.5	16.2	16.8	14.6
COc1ccc(C2=C(c3ccc(OC)cc3)C3(c4ccccc4)C(=O)C2(c2ccccc2)C2C(=O)N(c4ccc(C)cc4)C(=O)C23)cc1 (stereo not drawn)	14.2	15.4	14.1	14.7

SMILES	IC50 [1] [µM]	IC50 [2] [µM]	IC50 [3] [µM]	IC50 [4] [µM]
CCC1(C)CC(CCNCc2ccccc2O)(c2ccc(C)cc2)CCO1 (stereo not drawn)	0.61	14.1	16.8	7.3
OC(CNC1CCCCC1)Cn1c2ccccc2c2ccccc21 (stereo not drawn)	17.3	17.3	17.3	13.8
Cc1cc(Nc2ccc(C)c(Cl)c2)n2nc(C(F)(F)F)nc2n1	> 25	15	14.8	0.69
COc1cccc(C=Cc2nc(=O)c3ccccc3o2)c1OC	16.5	> 25	20	22.3
Fc1ccc2[nH]c3c(NCCCN4CCOCC4)ncnc3c2c1	2.88	19.7	17.1	14.7
COc1ccc(C(=O)Nc2nonc2-c2ccc(OC)c(OC)c2)cc1Cl	20.4	> 25	19.3	15.9
COc1ccc(CNC2CCN(c3ccc(NC(=O)c4cccc(Cl)c4)cc3)CC2)cc1OC	0.309	0.1	0.85	12.4
CC(NCc1ccccc1)c1cc(Cl)ccc1O (stereo not drawn)	8.25	3.81	12	16.6
COc1ccc(NC(=O)C2c3ccccc3C(=O)N(CC(C)C)C2c2cccs2)cc1Cl (stereo not drawn)	6.87	3.15	2.52	4.69
COc1ccc2c(c1)OC(O)(C(F)(F)C(F)(F)F)CC2=O (stereo not drawn)	17.7	> 25	15.7	11.8
FC(F)(F)c1cccc(CNC2CCN(CCc3ccccc3)CC2)c1	1.87	15.6	0.36	5.35
C=CC12CCN(CC1)C(C(O)c1ccnc3ccc(OC)cc13)C2 (stereo not drawn)	3.21	17.3	14.4	13.1
Cc1ccc(-c2cc3nc4c(c(O)n3n2)CCCC4)cc1	7.05	7.31	15	15.8
COc1ccc(C(=O)Nc2ccc(Cl)cc2C(=O)Nc2ccncc2)cc1	10	3.53	0.65	6.4
COc1ccccc1CNC(=O)CCn1c(=O)[nH]c2ccccc2c1=O	14.2	19.5	3.9	4.38
O=C(Nc1ccc(Cl)cc1)N1CCN(c2ccc3nncn3n2)CC1	1.02	16.3	1	16.3
CCN(CC)c1ccc(NC(=O)c2cccs2)cc1	13.4	24.1	17.5	10
CCCCNCC(O)(c1ccc(Cl)cc1)c1ccc(Cl)cc1	1	15.5	0.078	5.35
CCCC(c1nnnn1C1CCCCC1)N1CCN(C(=O)c2ccco2)CC1 (stereo not drawn)	0.219	0.059	0.083	0.13
CCCc1cc(O)c2c3c(c(=O)oc2c1)CN(C)CC3	18.5	23.9	16.4	7.87
Cc1cc(NC(=O)C2c3ccccc3C(=O)N(CC(C)C)C2c2cccs2)no1 (stereo not drawn)	3	12.6	2.57	13

SMILES	IC50 [1] [µM]	IC50 [2] [µM]	IC50 [3] [µM]	IC50 [4] [µM]
COc1ccc(-c2nonc2NC(=O)c2cccc(C)c2)cc1OC	5.64	0.078	0.69	10
Oc1ccccc1CNCC12CC3CC(CC(C3)C1)C2	13.1	14.7	15.9	10
COc1ccccc1CNC(=O)CCn1c(=O)[nH]c2ccsc2c1=O	15.2	8.93	0.68	2.05
COc1ccc(Br)cc1C1Nc2ccc3ccccc3c2C2=C1C(=O)CC(c1ccccc1)C2 (stereo not drawn)	> 25	> 25	17.3	13.1
Cc1ccc(Cn2c(N3CCC(C(=O)NCc4cccs4)CC3)nc3ccccc32)cc1	12.9	17.7	10	> 25
CC1CCN(Cc2ccc(NC(=O)c3cc4ccc5cccnc5c4[nH]3)cc2)CC1	6.41	9.55	15.3	13.1
O=C(Nc1ccsc1C(=O)NC1CCCCC1)c1ccc(F)cc1	5.64	0.08	0.1	17.7
CC(C)(C)c1ccc(C(=O)Nc2nc3ccccc3s2)cc1	10	7	12.9	1
COc1ccccc1CNC(=O)C1c2ccccc2C(=O)N(CC(C)C)C1c1cccs1 (stereo not drawn)	10	8.25	10	16.8
CCOc1ccc(-c2nonc2NC(=O)c2cccc(C)c2)cc1OCC	18.5	19.9	13.1	17.5
CCOc1ccccc1CNC(=O)C1c2ccccc2C(=O)N(CC(C)C)C1c1cccs1 (stereo not drawn)	12.4	0.83	0.1	14.3
COc1ccc(-c2nc3cc(Cc4ccc5[nH]c(-c6ccc(OC)cc6)nc5c4)ccc3[nH]2)cc1	8.12	5.58	7.5	3.21
CCOC(=O)c1ccc2nc(-c3ccccc3)cc(O)c2c1	> 25	> 25	14.1	14.2
COc1ccc(C(C)=O)cc1N1C(=O)C2C(C1=O)C1(c3ccccc3)C(=O)C2(c2ccccc2)C(c2ccc(C)cc2)=C1c1ccc(C)cc1 (stereo not drawn)	16.9	17.5	15.5	8.46
CCCc1c(C)nc2ccccc2c1O	2.4	15.3	2.96	3.7
CCCCCCOC(=O)C1=C(C)NC(=O)NC1c1ccccc1F (stereo not drawn)	15.2	> 25	14.8	4.9
CCN(CC)CCCNc1nc(-c2ccc(Cl)cc2)nc2ccccc12	0.25	0.73	2.16	5.93
Cc1ccc(Nc2nc(NCCO)c3ccccc3n2)cc1C	2.2	3.63	6.36	5
COc1ccc(NC(=O)C2c3ccccc3C(=O)N(CC(C)C)C2c2cccs2)cc1 (stereo not drawn)	8.02	12.6	17.3	9.09
c1ccc(Cn2c(N=Nc3c(Nc4ccccc4)ccc4ccccc34)nc3ccccc32)cc1	0.76	2.93	3.3	2.84
